Measured values published in ChEMBL document CHEMBL1127782, “Non-peptidic inhibitors of human leukocyte elastase. 1. The design and synthesis of pyridone-containing inhibitors” (J Med Chem, 1994).

Biological target: T1, Neutrophil elastase (Homo sapiens, UniProt P08246)
T1 sequence (P08246 whole entry): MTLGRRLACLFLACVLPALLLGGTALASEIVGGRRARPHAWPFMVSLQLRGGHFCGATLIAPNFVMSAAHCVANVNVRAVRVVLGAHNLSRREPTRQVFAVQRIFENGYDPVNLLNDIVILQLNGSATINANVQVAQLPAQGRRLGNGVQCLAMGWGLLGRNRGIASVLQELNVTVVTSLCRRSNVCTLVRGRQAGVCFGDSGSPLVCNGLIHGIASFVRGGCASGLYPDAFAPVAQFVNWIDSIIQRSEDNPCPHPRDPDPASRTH
Assay: The compound was tested in vitro for ability to inhibit human leukocyte elastase activity

Row | Compound | Ki [nM]
1 | CC(C)C(NC(=O)Cn1cccc(NC(=O)C(=O)O)c1=O)C(=O)C(F)(F)F (configuration not stated) | 350
2 | CCOC(=O)CC(=O)Nc1cccn(CC(=O)NC(C(=O)C(F)(F)F)C(C)C)c1=O (configuration not stated) | 3400
3 | CC(C)C(NC(=O)Cn1cccc(N)c1=O)C(=O)C(F)(F)F (configuration not stated) | 2700
4 | CC(C)C(NC(=O)Cn1cccc([N+](=O)[O-])c1=O)C(=O)C(F)(F)F (configuration not stated) | 15000
5 | COC(=O)C(=O)Nc1cc(Cc2ccccc2)cn(CC(=O)NC(C(=O)C(F)(F)F)C(C)C)c1=O (configuration not stated) | 70
6 | CC(C)C(NC(=O)Cn1cccc(NC(=O)C(N)=O)c1=O)C(=O)C(F)(F)F (configuration not stated) | 320
7 | CC(=O)Oc1cccc(Cc2cc(NC(=O)OCc3ccccc3)c(=O)n(CC(=O)NC(C(=O)C(F)(F)F)C(C)C)c2)c1 (configuration not stated) | 42
8 | CC(C)C(NC(=O)Cn1cc(Cc2cccc(F)c2)cc(NC(=O)OCc2ccccc2)c1=O)C(=O)C(F)(F)F (configuration not stated) | 87
9 | CC(C)C(NC(=O)Cn1cc(Cc2ccc(OC(=O)C(C)(C)C)cc2)cc(NC(=O)OCc2ccccc2)c1=O)C(=O)C(F)(F)F (configuration not stated) | 32
10 | CC(C)C(NC(=O)Cn1cc(Cc2cccc(NC(=O)C(F)(F)F)c2)cc(NC(=O)OCc2ccccc2)c1=O)C(=O)C(F)(F)F (configuration not stated) | 36
11 | COC(=O)C(=O)Nc1cccn(CC(=O)NC(C(=O)C(F)(F)F)C(C)C)c1=O (configuration not stated) | 500
12 | CC(C)C(NC(=O)Cn1cc(Cc2ccccc2)cc(NC(=O)OCc2ccccc2)c1=O)C(=O)C(F)(F)F (configuration not stated) | 40
13 | CC(C)C(NC(=O)Cn1cccc(NC(=O)OCc2ccccc2)c1=O)C(=O)C(F)(F)F (configuration not stated) | 280
14 | COC(=O)c1ccc(Cc2cc(NC(=O)OCc3ccccc3)c(=O)n(CC(=O)NC(C(=O)C(F)(F)F)C(C)C)c2)cc1 (configuration not stated) | 88
15 | CC(C)C(NC(=O)Cn1cc(Cc2cccc(OC(=O)C(C)(C)C)c2)cc(NC(=O)OCc2ccccc2)c1=O)C(=O)C(F)(F)F (configuration not stated) | 12
16 | CC(C)C(NC(=O)Cn1cc(Cc2cccc(O)c2)cc(NC(=O)OCc2ccccc2)c1=O)C(=O)C(F)(F)F (configuration not stated) | 89
17 | CC(C)C(NC(=O)Cn1cc(Cc2ccccc2)cc(NC(=O)C(=O)O)c1=O)C(=O)C(F)(F)F (configuration not stated) | 48
18 | CC(C)C(NC(=O)Cn1cc(Cc2ccc(F)cc2)cc(NC(=O)OCc2ccccc2)c1=O)C(=O)C(F)(F)F (configuration not stated) | 71
19 | CC(C)C(NC(=O)Cn1cc(Cc2ccccc2)cc(NC(=O)C(N)=O)c1=O)C(=O)C(F)(F)F (configuration not stated) | 51
20 | CC(C)C(NC(=O)Cn1cc(Cc2ccc(O)cc2)cc(NC(=O)OCc2ccccc2)c1=O)C(=O)C(F)(F)F (configuration not stated) | 34
21 | CC(C)C(NC(=O)Cn1cc(Cc2ccc(C(F)(F)F)cc2)cc(NC(=O)OCc2ccccc2)c1=O)C(=O)C(F)(F)F (configuration not stated) | 47
22 | CC(C)C(NC(=O)Cn1cccc(NC(=O)CC(=O)O)c1=O)C(=O)C(F)(F)F (configuration not stated) | 2600
